Measurements reported in patent publication US20250320213A1, “Nitrogen-Containing Heterocyclic Compounds” (Pfizer Inc., priority 2024, published 2025).
Read-outs that look alike come from different tables or passages of the source.

Key:
[1] = tested on: CCL17 secretion in peripheral human whole blood; test: Human Whole Blood (HWB) CCL17 TR-FRET Assay (IL-13 stimulated CCL17 secretion); type: cell-based
Summary of the method: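 Measured here: CCL17 in serum by TR-FRET (665/615 nm) after overnight (16 h) room-temperature detection. The blood, heparinized and compound-treated for 2 h, received IL-13 at 10 ng/mL final and was cultured 48 h at 37 °C.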

STAT6 = target: T1, STAT6 (Homo sapiens, UniProt P42226); test: STAT6 Reporter Luciferase Assay (IL-13 stimulated HaCaT keratinocyte NanoLuc reporter cells); type: cell-based; conditions: read-out: Reporter EC50
T1 construct: stably transfected HaCaT keratinocyte cell line, which expresses NanoLuc luciferase reporter gene under the transcriptional control of the STAT6 responsive promoter; endogenous in cells; host or cells: HaCaT keratinocyte reporter cell line (stably transfected with a NanoLuc reporter)
T1 sequence (P42226 1-847): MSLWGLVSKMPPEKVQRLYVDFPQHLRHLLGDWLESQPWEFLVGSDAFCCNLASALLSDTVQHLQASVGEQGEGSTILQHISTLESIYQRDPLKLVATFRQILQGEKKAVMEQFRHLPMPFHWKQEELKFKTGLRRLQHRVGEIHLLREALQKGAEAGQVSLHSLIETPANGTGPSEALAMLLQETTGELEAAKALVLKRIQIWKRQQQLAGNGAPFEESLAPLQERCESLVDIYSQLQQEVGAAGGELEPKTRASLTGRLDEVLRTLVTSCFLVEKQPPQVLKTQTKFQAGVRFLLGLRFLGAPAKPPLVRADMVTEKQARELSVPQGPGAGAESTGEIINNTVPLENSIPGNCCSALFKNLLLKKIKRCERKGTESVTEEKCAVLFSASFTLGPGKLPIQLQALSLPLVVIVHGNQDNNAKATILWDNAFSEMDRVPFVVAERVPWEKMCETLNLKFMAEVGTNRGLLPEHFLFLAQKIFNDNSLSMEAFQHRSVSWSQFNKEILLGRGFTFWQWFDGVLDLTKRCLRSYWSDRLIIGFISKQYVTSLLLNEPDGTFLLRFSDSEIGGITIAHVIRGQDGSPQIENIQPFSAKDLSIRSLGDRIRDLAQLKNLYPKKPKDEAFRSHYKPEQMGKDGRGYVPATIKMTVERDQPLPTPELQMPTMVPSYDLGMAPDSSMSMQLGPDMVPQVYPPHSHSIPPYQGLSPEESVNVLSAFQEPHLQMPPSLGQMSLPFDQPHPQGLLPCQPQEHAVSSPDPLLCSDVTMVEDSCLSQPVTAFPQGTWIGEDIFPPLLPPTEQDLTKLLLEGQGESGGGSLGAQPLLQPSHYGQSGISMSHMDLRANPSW
Summary of the method: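 Cells were plated overnight, washed, exposed to compound for two hours, stimulated with IL-13 (0.12 nM final) for four hours at 37 °C, and then lysed with Nano-Glo substrate for 15 min before luminescence reading.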

[2] = Homo sapiens, 48 h, human whole blood, IL-13 stimulated
[3] = IL-13 stimulated HaCaT STAT6 NanoLuc reporter cells
[4] = human whole blood, IL-13 stimulated, 48 hours

| Compound | IC50 ([1]; Homo sapiens, 48 h, inhibition of CCL17 secretion in human whole blood, 10 ng/mL IL13, 48 hours) [nM] | EC50 (STAT6; STAT6 NanoLuc luciferase reporter, IL-13 stimulated HaCaT keratinocyte cells) [nM] | IC50 [1, 2] [nM] | EC50 (STAT6; [3]) [nM] | IC50 [1, 4] [nM] |
| --- | --- | --- | --- | --- | --- |
| CC(C)n1nc(C(=O)NCc2ccc(NC(=O)N3CC[C@H](C#N)C3)cc2)c2c1CCN(c1ccc(C(=O)N(C)C)cn1)C2 [Example 182, (S)-N-(4-(3-cyanopyrrolidine-1-carboxamido)benzyl)-5-(5-(dimethylcarbamoyl)pyridin-2-yl)-1-isopropyl-4,5,6,7-tetrahydro-1H-pyrazolo[4,3-c]pyridine-3-carboxamide] | – | – | 131 | 17 | – |
| CC(C)n1nc(C(=O)NCc2ccc(NC(=O)N3CC[C@@H](C#N)C3)cc2)c2c1CCN(c1ccc(C(=O)N(C)C)cn1)C2 [Example 183, (R)-N-(4-(3-cyanopyrrolidine-1-carboxamido)benzyl)-5-(5-(dimethylcarbamoyl)pyridin-2-yl)-1-isopropyl-4,5,6,7-tetrahydro-1H-pyrazolo[4,3-c]pyridine-3-carboxamide] | – | – | 67 | 16 | – |
| CC(C)n1nc(C(=O)NCc2ccc(NC(=O)N3CC4CC(C3)O4)cc2)c2c1CCN(c1ccc(C(=O)N(C)C)cn1)C2 [Example 184, N-(4-((5-(5-(dimethylcarbamoyl)pyridin-2-yl)-1-isopropyl-4,5,6,7-tetrahydro-1H-pyrazolo[4,3-c]pyridine-3-carboxamido)methyl)phenyl)-6-oxa-3-azabicyclo[3.1.1]heptane-3-carboxamide] | – | – | – | 27 | 92 |
| COC1CN(C(=O)Nc2ccc(CNC(=O)c3nn(C(C)C)c4c3CN(c3ccc(C(=O)N(C)C)cn3)CC4)cc2)C1 [Example 188, 5-(5-(dimethylcarbamoyl)pyridin-2-yl)-1-isopropyl-N-(4-(3-methoxyazetidine-1-carboxamido)benzyl)-4,5,6,7-tetrahydro-1H-pyrazolo[4,3-c]pyridine-3-carboxamide] | – | – | 69 | 11 | – |
| CC(C)n1nc(C(=O)NCc2ccc(NC(=O)N(C)CC(F)F)cc2)c2c1CCN(c1ccc(C(=O)N(C)C)cn1)C2 [Example 189, N-(4-(3-(2,2-difluoroethyl)-3-methylureido)benzyl)-5-(5-(dimethylcarbamoyl)pyridin-2-yl)-1-isopropyl-4,5,6,7-tetrahydro-1H-pyrazolo[4,3-c]pyridine-3-carboxamide] | – | – | 95 | 10 | – |
| COc1nc(N2CCc3c(c(C(=O)NCc4ccc(NC(=O)N(C)C)cc4)nn3C(C)C)C2)ccc1[C@@]1(C)CCCNC1=O [Example 192, (R)-N-(4-(3,3-dimethylureido)benzyl)-1-isopropyl-5-(6-methoxy-5-(3-methyl-2-oxopiperidin-3-yl)pyridin-2-yl)-4,5,6,7-tetrahydro-1H-pyrazolo[4,3-c]pyridine-3-carboxamide] | – | – | 6440 | 1670 | – |
| CCOC(=O)Nc1ccc(CNC(=O)c2nn(C(C)C)c3c2CN(c2ccc(C(=O)N(C)C)cn2)CC3)cc1 [Example 236, Ethyl (4-((5-(5-(dimethylcarbamoyl)pyridin-2-yl)-1-isopropyl-4,5,6,7-tetrahydro-1H-pyrazolo[4,3-c]pyridine-3-carboxamido)methyl)phenyl)carbamate] | – | – | – | 17 | 254 |
| CCn1nc(C(=O)NCc2ccc(NC(=O)N(C)C)cc2)c2c1C(C)(C)CN(c1ccc(C(=O)N(C)C)cn1)C2 [Example 238, 5-(5-(dimethylcarbamoyl)pyridin-2-yl)-N-(4-(3,3-dimethylureido)benzyl)-1-ethyl-7,7-dimethyl-4,5,6,7-tetrahydro-1H-pyrazolo[4,3-c]pyridine-3-carboxamide] | – | – | 9 | 2 | – |
| CN(C)C(=O)Nc1ccc(CNC(=O)c2nn(CC3CC(F)(F)C3)c3c2CN(c2ccc(C(=O)N(C)C)cn2)CC3)cc1 [Example 248, 1-((3,3-difluorocyclobutyl)methyl)-5-(5-(dimethylcarbamoyl)pyridin-2-yl)-N-(4-(3,3-dimethylureido)benzyl)-4,5,6,7-tetrahydro-1H-pyrazolo[4,3-c]pyridine-3-carboxamide] | – | – | 131 | 35 | – |
| CN(C)C(=O)Nc1ccc(CN2CCCn3nc4c(c3C2=O)CN(c2ccc(C(=O)N(C)C)cn2)CC4)cc1 [Example 252, 6-(10-(4-(3,3-Dimethylureido)benzyl)-11-oxo-1,3,4,7,8,9,10,11-octahydro-2H-pyrido[4′,3′:3,4]pyrazolo[1,5-a][1,4]diazepin-2-yl)-N,N-dimethylnicotinamide] | – | – | 1130 | 385 | – |
| CN(C)C(=O)Nc1ccc(CNC(=O)c2nn(CC(C)(C)C)c3c2CN(c2ccc(C(=O)N(C)C)cn2)CC3)cc1 [Example 253, 5-(5-(dimethylcarbamoyl)pyridin-2-yl)-N-(4-(3,3-dimethylureido)benzyl)-1-neopentyl-4,5,6,7-tetrahydro-1H-pyrazolo[4,3-c]pyridine-3-carboxamide] | – | – | 126 | 7 | – |
| CN(C)C(=O)Nc1ccc(CN2CCn3nc4c(c3C2=O)CN(c2ccc(C(=O)N(C)C)cn2)CC4)cc1 [Example 256, 6-(9-(4-(3,3-dimethylureido)benzyl)-10-oxo-3,4,7,8,9,10-hexahydropyrido[4′,3′:3,4]pyrazolo[1,5-a]pyrazin-2(1H)-yl)-N,N-dimethylnicotinamide] | – | – | 190 | 28 | – |
| C[C@H]1Cc2c(c(C(=O)NCc3ccc(NC(=O)N(C)C)cc3)nn2C)CN1c1ccc(-c2nccn2C)cn1 [Example 259, (S)-N-(4-(3,3-dimethylureido)benzyl)-1,6-dimethyl-5-(5-(1-methyl-1H-imidazol-2-yl)pyridin-2-yl)-4,5,6,7-tetrahydro-1H-pyrazolo[4,3-c]pyridine-3-carboxamide] | – | – | 30 | 2 | – |

Continued, in another order:

| IC50 ([1]; Homo sapiens, 48 h, inhibition of CCL17 secretion in human whole blood, 10 ng/mL IL13, 48 hours) [nM] | EC50 (STAT6; STAT6 NanoLuc luciferase reporter, IL-13 stimulated HaCaT keratinocyte cells) [nM] | IC50 [1, 2] [nM] | EC50 (STAT6; [3]) [nM] | Compound | IC50 [1, 4] [nM] |
| --- | --- | --- | --- | --- | --- |
| 436 | 260 | – | – | CC(C)n1nc(C(=O)NCc2ccc(NC(=O)NCC3COC3)cc2)c2c1CCN(c1ccc(C(=O)N(C)C)cn1)C2 [Example 181, 5-(5-(dimethylcarbamoyl)pyridin-2-yl)-1-isopropyl-N-(4-(3-(oxetan-3-ylmethyl)ureido)benzyl)-4,5,6,7-tetrahydro-1H-pyrazolo[4,3-c]pyridine-3-carboxamide] | – |
| – | – | 83 | 24 | CC(C)n1nc(C(=O)NCc2ccc(NC(=O)N3CC(C)(O)C3)cc2)c2c1CCN(c1ccc(C(=O)N(C)C)cn1)C2 [Example 185, 5-(5-(dimethylcarbamoyl)pyridin-2-yl)-N-(4-(3-hydroxy-3-methylazetidine-1-carboxamido)benzyl)-1-isopropyl-4,5,6,7-tetrahydro-1H-pyrazolo[4,3-c]pyridine-3-carboxamide] | – |
| – | – | 41 | 15 | CC(C)n1nc(C(=O)NCc2ccc(NC(=O)N(C)[C@H]3CCOC3)cc2)c2c1CCN(c1ccc(C(=O)N(C)C)cn1)C2 [Example 187, (S)-5-(5-(dimethylcarbamoyl)pyridin-2-yl)-1-isopropyl-N-(4-(3-methyl-3-(tetrahydrofuran-3-yl)ureido)benzyl)-4,5,6,7-tetrahydro-1H-pyrazolo[4,3-c]pyridine-3-carboxamide] | – |
| – | – | 9 | 1 | CC(C)n1nc(C(=O)NCc2ccc(NC(=O)N(C)C)cc2)c2c1C(C)(C)CN(c1ccc(C(=O)N(C)C)cn1)C2 [Example 247, 5-(5-(dimethylcarbamoyl)pyridin-2-yl)-N-(4-(3,3-dimethylureido)benzyl)-1-isopropyl-7,7-dimethyl-4,5,6,7-tetrahydro-1H-pyrazolo[4,3-c]pyridine-3-carboxamide] | – |
| – | – | 180 | 22 | CN(C)C(=O)Nc1ccc(CNC(=O)c2nn(C3CCCOC3)c3c2CN(c2ccc(C(=O)N(C)C)cn2)CC3)cc1 (centres unmarked) [Example 254, 5-(5-(dimethylcarbamoyl)pyridin-2-yl)-N-(4-(3,3-dimethylureido)benzyl)-1-(tetrahydro-2H-pyran-3-yl)-4,5,6,7-tetrahydro-1H-pyrazolo[4,3-c]pyridine-3-carboxamide] | – |
| – | – | 272 | 15 | CN(C)C(=O)Nc1ccc(CNC(=O)c2nn(CC3CCC3)c3c2CN(c2ccc(C(=O)N(C)C)cn2)CC3)cc1 [Example 257, 1-(cyclobutylmethyl)-5-(5-(dimethylcarbamoyl)pyridin-2-yl)-N-(4-(3,3-dimethylureido)benzyl)-4,5,6,7-tetrahydro-1H-pyrazolo[4,3-c]pyridine-3-carboxamide] | – |
